# Measurements published in publication PMC2374418, “A prolonged methoxymorpholino doxorubicin (PNU-152243 or MMRDX) infusion schedule in patients with solid tumours: a phase 1 and pharmacokinetic study” (British Journal of Cancer, 2000).
# Experiments:
# [1] = Pharmacokinetics in plasma and urine, first cycle, non-compartmental analysis
# From the text: Nowadays, anthracyclines play an important role in chemothera- peutic treatment of a wide variety of tumour types. The clinical use of anthracyclines is limited by their toxicity profile, especially irreversible, cumulative dose-related cardiotoxicity, and by intrinsic or acquired resistance of tumours cells. Mechanisms of this resistance consist of several pathways, such as overexpression of drug efflux pumps (i.e. P-glycoprotein), decrease in topoiso- merase II enzyme levels, and increase in cellular detoxifying capacity (Kaye and Merry, 1985; Deffie et al, 1989; de Jong et al, 1990; Ford and Hait, 1990; Roninson, 1997). Morpholinyl anthracyclines, such as methoxymorpholino doxorubicin (MMRDX or PNU-152243), were synthesized in search for new anthracyclines with at least partially novel modes of action, including activity on multidrug-resistant (MDR) tumours. MMRDX is a novel doxorubicin derivative in which the nitrogen atom of the daunosamine is enclosed in a methoxymor- pholino ring (Figure 1). […] The working mechanism of morpholinyl anthracyclines appears to be different from other anthracyclines. Morpholinyl anthracyclines inhibit ribosomal gene transcription as well as topoisomerase I-mediated DNA-cleavage (Wassermann et al, 1988, 1990). […] Metabolic conversion of MMRDX by human liver microsomes and NADPH potentiated the cytotoxicity in an ovarian carcinoma cell line (Lau et al, 1994). […] Therefore, we decided to perform a phase I study with MMRDX administered as a 3 h infusion every 4 weeks in order to try to increase the MTD as compared with bolus administration. In addition, we assessed pharmacokinetics of prolonged MMRDX-infusion. A prolonged methoxymorpholino doxorubicin (PNU- 152243 or MMRDX) infusion schedule in patients with solid tumours: a phase 1 and pharmacokinetic study E Fokkema1 , J Verweij2 , AT van Oosterom3 , DRA Uges1 , R Spinelli4 , O Valota4 , EGE de Vries1 and HJM Groen1 1 Department of Pulmonology, Department of Pharmacy, Department of Internal Medicine, University Hospital Groningen, PO Box 30.001, 9700 RB Groningen, The Netherlands; 2 Rotterdam Cancer Institute and University Hospital, Rotterdam, The Netherlands; 3 University Hospital Leuven, Belgium; 4 Pharmacia & Upjohn, Milan, Italy Summary The aim of this phase I study was to assess feasibility, pharmacokinetics and toxicity of methoxymorpholino doxorubicin (MMRDX or PNU-152243) administered as a 3 h intravenous infusion once every 4 weeks. […] The first cohort of patients was treated with 1 mg m-2 of MMRDX. The next cohorts received 1.25 mg m-2 and 1.5 mg m-2 respectively. […] (c) 2000 Cancer Research Campaign Keywords: methoxymorpholino doxorubicin; pharmacokinetics; phase I study 767 Received 6 January 1999 Revised 2 August 1999 Accepted 25 August 1999 Correspondence to: EGE de Vries British Journal of Cancer (2000) 82(4), 767-771 (c) 2000 Cancer Research Campaign DOI: 10.1054/ bjoc.1999.0996, available online at http://www.idealibrary.com on PATIENTS AND METHODS Patients The study was performed between December 1994 and June 1996. Patients with intrinsic anthracycline-resistant tumours were accrued in three different centres in Belgium and The Netherlands.
# [2] = system: patients; set-up: method as in Vasey et al, 1995; conditions: ref Vasey et al, 1995, cited from earlier work
# [3] = system: patients with various intrinsically anthracycline resistant solid tumours; conditions: 1998, cited from earlier work
# [4] = system: rats; set-up: method as in Danesi et al, 1993; conditions: ref Danesi et al, 1993; cited from earlier work
# [5] = system: various tumour cell lines, including MDR tumour cell lines; set-up: method as in ref Danesi et al, 1993; Kuhl et al, 1993; van der Graaf et al, 1995; Bakker et al, 1997; conditions: ref Danesi et al, 1993, Kuhl et al, van der Graaf et al, 1995, Bakker et al, 1997; cited from earlier work
# [6] = set-up: method as in ref Johnston and Glazer, 1983; Acton et al, 1984; Streeter et al, 1986; conditions: ref Johnston and Glazer, 1983; Acton et al, 1984; Streeter et al, 1986; cited from earlier work
compound,measurement,setting,value
"COc1cccc2c1C(=O)c1c(O)c3c(c(O)c1C2=O)C[C@@](O)(C(=O)CO)C[C@@H]3O[C@H]1C[C@H](N2CCO[C@H](OC)C2)[C@H](O)[C@H](C)O1 [MMRDX, methoxymorpholino doxorubicin]","% Dose in urine, median (range)",[1]; 1.0 mg m-2 (n = 3),1.6 (0.53-1.74) %
same,"% Dose in urine, median (range)",[1]; 1.25 mg m-2 (n = 6),2.1 (0.35-2.6) %
same,"Cl (plasma clearance), median (range)","[1]; 1.25 mg m-2, n = 4",649.0 (506.3-812.3) ml min-1 m-2
same,"Vss, median (range)","[1]; 1.25 mg m-2, n = 4",2891.5 (1742-3371) l m-2
same,"Vz, median (range)","[1]; 1.25 mg m-2, n = 4",3942.5 (1997-4540) l m-2
same,"t1/2 z (printed 'tA z'), median (range)","[1]; 1.25 mg m-2, n = 4",60.9 (45.6-88.8) h
same,"% Dose in urine, median (range)",[1]; 1.5 mg m-2 (n = 3),2.47 (1.71-2.49) %
same,"Cl (plasma clearance), median (range)","[1]; 1.5 mg m-2, n = 2",741.2 (659-823.2) ml min-1 m-2
same,"Vss, median (range)","[1]; 1.5 mg m-2, n = 2",2693.0 (2585-2801) l m-2
same,"Vz, median (range)","[1]; 1.5 mg m-2, n = 2",2908.5 (2574-3243) l m-2
same,"t1/2 z (printed 'tA z'), median (range)","[1]; 1.5 mg m-2, n = 2",46.5 (36.1-56.9) h
same,Renal excretion,[1]; 3 h i.v. infusion,negligible
same,"Correlation between AUC0-tz or Cmax and nadirs of haemoglobin, platelets, leucocytes and neutrophils","[1]; pharmacodynamic analysis, linear regression, first cycle",no correlation
same,"AUC 0-tz, median (range)","[1]; plasma, 1.0 mg m-2 (n = 3)",9.4 (8.3-18.3) ng h ml-1
same,"Cmax, median (range)","[1]; plasma, 1.0 mg m-2 (n = 3)",2.8 (1.8-6.2) ng ml-1
same,"Cmax, one patient with high value","[1]; plasma, 1 mg m-2, one patient",6.17 ng/mL
same,"AUC 0-tz, median (range)","[1]; plasma, 1.25 mg m-2 (n = 6)",15.1 (10.1-30.4) ng h ml-1
same,"Cmax, median (range)","[1]; plasma, 1.25 mg m-2 (n = 6)",2.3 (1.1-2.7) ng ml-1
same,"AUC 0-tz, median (range)","[1]; plasma, 1.5 mg m-2 (n = 3)",21.4 (5.7-26.9) ng h ml-1
same,"Cmax, median (range)","[1]; plasma, 1.5 mg m-2 (n = 3)",1.4 (1.2-2.1) ng ml-1
same,"Cmax, all other patients","[1]; plasma, all dose levels",around 2.0 ng ml-1
same,AUC0-infinity from non-compartmental analysis,"[1]; similar for all dose levels, seven patients",around 30 ng h ml-1
same,Grade IV neutropenia,[2]; 1.5 mg m-2 bolus every 3 weeks,14 % of administered cycles
same,Dose-limiting toxicity (DLT),[2]; bolus injection every 3 weeks,myelosuppression (neutropenia and thrombocytopenia)
same,Maximum tolerated dose (MTD),[2]; bolus injection every 3 weeks,1.5 mg m-2
same,Plasma clearance,[2]; bolus,650 ml min-1 m-2
same,t1/2 after a rapid distribution phase,[2]; bolus,40 h
same,Tumour responses,"[2]; head and neck (one out of three), cervical cancer (one out of five), colorectal cancer (two out of 20)",four responses
same,Grade IV neutropenia,"[3]; 1.5 mg m-2 bolus every 4 weeks, ref Bakker et al",9 % of administered cycles
same,Tumour responses,"[3]; NSCLC, ref Bakker et al",one partial response in one out of 17 NSCLC
same,Plasma clearance,"[3]; bolus, ref Bakker et al",620 ml min-1 m-2
same,t1/2 of the elimination phase,"[3]; bolus, ref Bakker et al",49 h
same,Patients taken off study due to a decrease in LVEF,"[3]; phase II study, ref Vasey et al, 1995, Bakker et al",two patients
same,Cardiotoxicity in rats,[4],no substantial cardiotoxicity
same,Cytotoxic activity in vitro,[5],potent cytotoxic activity
same,Lipophilicity,[6],high lipophilicity
